Consider 2 compounds from ChEMBL document CHEMBL3421591, “Improved Synthesis of Biotinol-5'-AMP: Implications for Antibacterial Discovery” (ACS Med Chem Lett, 2015).

Converted amounts (≈) assume the structure as drawn. The source made the active and inactive calls.

Type in all cases: functional
Experiment [1] relates to Mycobacterium tuberculosis. Kind of experiment: Antimicrobial activity against isoniazid-resistant Mycobacterium tuberculosis Who-185 after 16 to 20 hrs by two-fold microdilution broth method.
The test system of experiment [2] is Mycobacterium tuberculosis. Kind of experiment: Antimicrobial activity against pyrazinamide-resistant Mycobacterium tuberculosis BCG(SI) after 16 to 20 hrs by two-fold microdilution broth method. Background: In broth dilution the organism is exposed to a series of concentrations in liquid medium.
In experiment [3] the test system is Mycobacterium tuberculosis. Description: Antimicrobial activity against rifampicin-resistant Mycobacterium tuberculosis Who-185 after 16 to 20 hrs by two-fold microdilution broth method.

For `Nc1ncnc2c1ncn2[C@@H]1O[C@H](COP(=O)(O)OCCCCC[C@@H]2SC[C@@H]3NC(=O)N[C@@H]32)[C@@H](O)[C@H]1O`, the MIC (commonly the smallest concentration in the dilution series that meets the test's criterion for growth inhibition) was found to be 0.5 µg/mL (≈ 0.894 µM) in experiment [1] and 2.5 µg/mL (≈ 4.47 µM) in experiment [3]. Further, the MIC result in experiment [2] was “inactive”.
For `Nc1ncnc2c1ncn2[C@@H]1O[C@H](CNS(=O)(=O)NC(=O)CCCC[C@@H]2SC[C@@H]3NC(=O)N[C@@H]32)[C@@H](O)[C@H]1O`, in that order: 0.1 µg/mL (≈ 0.175 µM), 0.1 µg/mL (≈ 0.175 µM) and 0.1 µg/mL (≈ 0.175 µM).
